These results are taken from article PMC12250170, “Synthesis of Novel Podophyllotoxin–Benzothiazole Congeners and Their Biological Evaluation as Anticancer Agents” (International Journal of Molecular Sciences, 2025).

Like-named read-outs stand apart in the source and are kept apart here.

Assay [1] concerns B16F10 (murine melanoma) cells. In words: In vitro cytotoxicity, PrestoBlue assay, B16F10. It counts as cell-based. The conditions noted are these: Mus musculus, B16-F10, 48 h, read-out: IC50 ± SD, B16F10. As for the experimental part:
(§1) The synthesized compounds were tested and evaluated for their cytotoxicity using an in vitro cytotoxicity assay. We studied five cancer cell lines and one non-cancerous cell line. The cells were purchased from the American Type Culture Collection (ATCC), United States, including HeLa (cervical), LoVo (colorectal), MCF-7 (breast), SKOV3 (ovarian), B16F10 (murine melanoma), and HaCaT (human keratinocyte). Dulbecco’s modified Eagle’s medium (containing 10% FBS) was used to culture HeLa, MCF-7, B16F10, and HaCaT cells, while RPMI 1640 medium (containing 10% FBS) was used for SKOV3 and LoVo cells. The cells were cultured in 25 cm^2 culture flasks (Corning, Corning, NY, USA) in a humidified atmosphere of 5% CO2 at 37 °C and passaged every three days with standard Trypsin-EDTA solution (Gibco, Thermo Fisher Scientific, Waltham, MA, USA). All compounds were initially prepared as stock solutions at a concentration of 10 mM (in DMSO). Serial dilutions were performed in the indicated medium to achieve the required concentration gradient of compounds (20 µM, 10 µM, 5 µM, 2.5 µM, 1.25 µM, 0.625 µM, 0.312 µM). The maximum percentage of DMSO used in the compound solutions was 0.1%, based on the procedure previously described by our group.
(§2) The PrestoBlue assay was performed according to the method previously reported by Strus et al.. The cells (LoVo and B16F10) were seeded in the indicated medium in a 96-well culture plate (Nest Biotechnology) at a density of 1 × 10^4 cells per well (100 µL) and incubated at 37 °C in a 5% CO2 atmosphere. After 24 h of incubation, 100 µL aliquots of the compounds in medium were added to each well, and the cells were further incubated for 48 h. After 48 h, the old medium was removed, and 100 µL of fresh medium was added. Then, 10 µL of PrestoBlue solution (Thermo Fisher Scientific, Waltham, MA, USA) was added to each well and incubated for 60 min. The fluorescence intensity was measured with excitation at 544 nm and emission at 615 nm using a Fluorstar microplate reader (BMG Labtech, Ortenberg, Germany). The results were expressed as a percentage of the intensity relative to that of control cells (non-treated cells).
(§3) Data analysis was carried out using GraphPad Prism 5.0.3. Calculations were performed using MS-Excel version 2021. The cytotoxic effect was expressed as the relative viability of treated cells (percentage growth control) and was calculated as follows: % relative viability = Ae−Ab/Ac−Ab×100% , where Ae is experimental absorbance/fluorescence intensity, Ac is the absorbance/ fluorescence intensity of growth control (only cells with medium), and Ab is the absorbance/fluorescence intensity of a blank (only medium). The IC50 values were obtained by using the sigmoidal dose–response function in GraphPad Prism. The results were expressed as mean ± standard deviation (SD).

Assay [2] relates to HeLa (cervix cancer) cells. In words: In vitro cytotoxicity, crystal violet assay, HeLa. The following applies: Homo sapiens, HeLa, 48 h, HeLa, crystal violet assay, 48 h; read-out: IC50 ± SD, HeLa. It counts as cell-based, human. As for the experimental part: as §1
(§4) This assay was performed in reference to the method already described. In brief, the cell lines (HeLa, MCF-7, and SKOV-3) were seeded in the indicated medium in a 96-well culture plate (Nest Biotechnology, Wuxi, China) at a density of 1 × 10^4 cells per well (100 µL) in quadruplicates and then incubated at 37 °C in a 5% CO2 atmosphere. After 24 h of incubation, 100 µL aliquots of the compounds in medium at increasing concentrations were added to each well, and the cells were further incubated for 48 h. After the incubation period, the cells were washed with PBS twice, and then with 70% ethanol, followed by staining with 0.05% crystal violet solution in water (ChemPur, Piekary Slaskie, Poland) for 20 min. The excess crystal violet was washed out with distilled water several times. The stained cells then solubilized in 1% Triton™ X-100 Surfact-Amps (POCH SA, Gliwice, Poland) or 10% PBS. The absorbance of each well was measured using Fluostar plate reader at […].
as §3

Assay [3] has as its system cancer cell lines (MCF-7, SKOV-3, B16F10, LOVO, and HeLa) and HaCaT. In words: In vitro cytotoxicity assay, results summarised over the cell line panel. It counts as cell-based. As for the experimental part: The cytotoxicity properties of semi-synthesized compounds 7–15 was evaluated against five types of cancer cell lines including, human: HeLa (cervix cancer), LoVo (colorectal cancer), MCF-7 (breast cancer), SKOV-3 (ovarian cancer), and murine: B16F10 (malignant melanoma). Thus, various human tumor cell lines representing major types of malignant cancers were included in the study protocol. Non-tumorigenic HaCaT cells were used as a representative model of normal (non-cancerous) cells. The crystal violet assay and PrestoBlue assay were used to evaluate the cytotoxic/cytostatic effect. We also included the cytotoxicity data of podophyllotoxin and etoposide as reference values.
as §1, §4, §2
Data analysis was carried out using GraphPad Prism 5.0.3. Calculations were performed using MS-Excel version 2021. […]

Assay [4] deals with MCF-7 (breast cancer) cells. In words: In vitro cytotoxicity, crystal violet assay, MCF-7. The class given is cell-based, human. The following applies: Homo sapiens, MCF7, 48 h, MCF-7, crystal violet assay, read-out: IC50 ± SD, MCF-7. As for the experimental part:
as §1, §4, §3

The subject of assay [5] is LoVo (colorectal cancer) cells. In words: In vitro cytotoxicity, PrestoBlue assay, LoVo. It counts as cell-based, human. The following applies: Homo sapiens, 48 h, read-out: IC50 ± SD, LoVo. As for the experimental part: as §1, §2, §3
Assay [6] concerns SKOV-3 (ovarian cancer) cells. In words: In vitro cytotoxicity, crystal violet assay, SKOV-3. The class given is cell-based, human. The conditions noted are these: Homo sapiens, SK-OV-3, 48 h, SKOV-3, crystal violet assay, read-out: IC50 ± SD, SKOV-3. As for the experimental part:
as §1, §4, §3

Another assay concerns HeLa cells. In words: Cell cycle analysis by flow cytometry (propidium iodide). The class given is cell-based, human. The following applies: higher concentrations, after 48 h of exposure. As for the experimental part:
To determine the possible mechanisms of compounds 7 and 11 in inhibiting the proliferation of cancer cells, cell cycle analysis was performed with the flow cytometry method, as shown in Figure 3. Compound 7 was previously reported to inhibit proliferation of HaCaT cells via cell cycle arrest in G2/M [18]. As a reference, HeLa cells were treated with the indicated concentrations of compounds 7 and 11 for 24 h and 48 h, and the cell cycle phases distribution of treated cells was determined with the propidium iodide (PI) method, as previously described. The effects of novel podophyllotoxin derivatives on cell cycle phase distribution were evaluated in cells exposed to these compounds for 24 h or 48 h. Three compounds were compared: podophyllotoxin 1, KL-3 derivative 7, and its analog lacking the ester group 11.
For cell cycle analysis, HeLa cells were treated for 24 or 48 h with compounds 7 and 11 at concentrations of 5 µM and 10 µM. After the incubation period, the cells were fixed in a freezing medium (ice-cold 70% ethanol solution in PBS) and stored at −20 °C. The cell suspension was then centrifuged, washed with PBS, and resuspended in PBS containing 200 µg of DNase-free RNase A (Sigma) for 20 min at room temperature. Propidium iodide (Sigma) was added to a final concentration of 5 µg/mL, and the cells were stained for at least 2 h at 4 °C. The analysis was performed using a FACSCalibur flow cytometer (Becton Dickinson, San Diego, CA, USA) and analyzed with CellQuest software, v.3.3.
For orientation: A flow cytometer gives signals particle by particle.

Assay [7] deals with HaCaT (human keratinocyte) cells. The assay can be described thus: In vitro cytotoxicity, PrestoBlue assay, HaCaT (non-tumorigenic). It counts as cell-based. The conditions noted are these: Homo sapiens, 48 h, read-out: IC50 ± SD, HaCaT.

Consider `COc1cc([C@H]2CC(c3nc4ccccc4s3)=Cc3cc4c(cc32)OCO4)cc(OC)c1OC` [Compound 11], for which the IC50 is 1930 ± 250 nM in assay [1]; 1540 ± 240 nM in assay [2]; 680 to 2880 nM in assay [3] (MCF-7, SKOV-3, B16F10, LOVO, HeLa, read-out: IC50, range over all tested cancer cell lines); 1540 to 2880 nM in assay [3] (read-out: IC50, range over all tested cell lines); 1980 ± 490 nM in assay [4]; 2880 ± 870 nM in assay [5]. The IC50 came to 1790 ± 280 nM in assay [6] and 1900 ± 140 nM in assay [7]. Besides, the “Cells arrested in the G2/M phase” value in the assay with HeLa cells is reported as “approximately 43%”.

In general, IC50 refers to the concentration that gives 50% inhibition.
